In US9745267B2, “Compounds as modulators of RORC” (Boehringer Ingelheim International GmbH, priority 2013, dated 2017):

biological target: T1, RORγt (hRORC LBD) (Homo sapiens, UniProt P51449); experiment: RGA Assay: nuclear receptor transactivation assay, RORγt transactivation of a luciferase reporter; assay type: cell-based; details: transiently transfected HEK 293 cells, Gal4DBD hRORC LBD, 20-24 hours incubation
T1 construct: expressed in transfected cells; host or cells: HEK 293 (transient cotransfection with pGL4.3 luc2P/GAL4UAS/Hygro reporter)
T1 sequence (P51449 269-508 limits assumed): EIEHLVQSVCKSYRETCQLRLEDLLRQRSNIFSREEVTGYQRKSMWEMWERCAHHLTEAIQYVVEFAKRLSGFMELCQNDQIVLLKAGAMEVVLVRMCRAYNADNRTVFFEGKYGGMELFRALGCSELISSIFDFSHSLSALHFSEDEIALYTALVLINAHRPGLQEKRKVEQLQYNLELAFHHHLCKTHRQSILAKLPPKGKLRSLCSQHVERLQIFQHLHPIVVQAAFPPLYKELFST
Method: A nuclear receptor transactivation assay was performed to quantitate the ability of test compounds to inhibit RORγt transactivation of a luciferase reporter. A similar assay is described in: Khan et al., Bioorganic & Medicinal Chemistry Letters 23 (2013), 532-536. The system uses transiently transfected HEK 293 cells cotransfected with two plasmids (pGL4.3, luc2P/GAL4UAS/Hygro, and pBIND, Gal4DBD hRORC LBD1-3). The positive control is co-transiently transfected with both plasmids, and the negative control contains the pGL4.3 promoter sequence. Assays were assembled in 384 well plates where transiently transfected cells and test compound at varying concentrations were incubated for 20-24 hours. The next day, assays plates are taken out and equilibrated at RT for 20-30 minutes. Bright-Glo™ Luciferase Assay System is used to detect Luciferase production. After addition of Bright GLO detection reagent, the plates were incubated at RT for 20 minutes. The plates were read on an Envision plate reader to measure luminescence signal. The RLU signal is converted to POC relative to control and blank wells.
Compound Dilution Buffer:
Bright Glo Luciferase Assay System: Promega #E2620
Thaw lysis buffer provided in kit, add 100 mL lysis buffer to substrate powder.

Row | Compound | IC50
1 | CCCC1(C)CN(C(=O)NCc2ccc(S(=O)(=O)NC)cc2)c2ccc(-c3ccc(F)cc3C)cc21 (stereo not shown) [Example 65] | 1500 nM
2 | COCCOc1cc(C#N)ccc1CNC(=O)N1CC2(CCCC2)c2cc(-c3ccc(OC)cc3C(F)(F)F)ccc21 [Example 100] | 1200 nM
3 | Cc1cc(F)ccc1-c1ccc2c(c1)C1(CCCC1)CN2C(=O)NCc1ccc(S(C)(=O)=O)cc1 [Example 54] | 1300 nM
4 | CNS(=O)(=O)c1ccc(CNC(=O)N2CC3(CCCC3)c3cc(-c4ccc(CO)cc4C)ccc32)cc1 [Example 42] | 1100 nM
5 | CNS(=O)(=O)c1ccc(CNC(=O)N2CC3(CCCC3)c3cc(-c4ccc(C)cc4C#N)ccc32)cc1 [Example 39] | 1000 nM
6 | CNS(=O)(=O)c1ccc(CNC(=O)N2CC3(CCCC3)c3cc(-c4ccc(C)cc4C)ccc32)cc1 [Example 14] | 870 nM
7 | CCc1ccccc1-c1ccc2c(c1)C1(CCCC1)CN2C(=O)NCc1ccc(S(=O)(=O)NC)cc1 [Example 9] | 610 nM
8 | CCS(=O)(=O)c1ccc(CNC(=O)N2CC3(CCCC3)c3cc(-c4c(OC)ncnc4C4CC4)ccc32)cc1 [Example 112] | 520 nM
9 | CNS(=O)(=O)c1ccc(CNC(=O)N2CC3(CCCC3)c3cc(-c4cc(F)ccc4CC#N)ccc32)cc1 [Example 46] | 1300 nM
10 | CNS(=O)(=O)c1ccc(CNC(=O)N2CC3(CCCC3)c3cc(-c4ccc(OC)cc4C)ccc32)cc1 [Example 23] | 1200 nM
11 | CCS(=O)(=O)c1ccc(CNC(=O)N2CC3(CCCC3)c3cc(-c4ccccc4-c4cnco4)ccc32)cc1 [Example 78] | 790 nM
12 | CNS(=O)(=O)c1ccc(CNC(=O)N2CC3(CCCC3)c3cc(-c4c(F)cccc4C(F)(F)F)ccc32)cc1 [Example 75] | 140 nM
13 | CNS(=O)(=O)c1ccc(CNC(=O)N2CC3(CCCC3)c3cc(-c4cc(C)ccc4C)ccc32)cc1 [Example 3] | 1000 nM
14 | CNS(=O)(=O)c1ccc(CNC(=O)N2CC(C)(CC(C)C)c3cc(-c4ccc(F)cc4C)ccc32)cc1 (stereo not shown) [Example 59] | 1500 nM
15 | CNS(=O)(=O)c1ccc(CNC(=O)N2CC3(CCCC3)c3cc(-c4ccccc4COC)ccc32)cc1 [Example 20] | 1100 nM
16 | CNS(=O)(=O)c1ccc(CNC(=O)N2CC3(CCCC3)c3cc(-c4cc(CN)ccc4C)ccc32)cc1 [Example 98] | 1200 nM
17 | COc1ncc(-c2ccc3c(c2)C2(CCCC2)CN3C(=O)NCc2ccc(S(C)(=O)=O)cc2)c(C2CC2)n1 [Example 108] | 1600 nM
18 | CCC1(C2CC2)CN(C(=O)NCc2ccc(S(=O)(=O)CC)cc2)c2ccc(-c3c(OC)ncnc3C3CC3)cc21 (stereo not shown) [Example 118] | 470 nM
19 | CCOc1ccc(-c2ccc3c(c2)C2(CCCC2)CN3C(=O)NCc2ccc(S(=O)(=O)NC)cc2)c(C)c1 [Example 12] | 780 nM
20 | CNS(=O)(=O)c1ccc(CNC(=O)N2CC3(CCCC3)c3cc(-c4ccccc4C(C)=O)ccc32)cc1 [Example 27] | 1700 nM
21 | CCS(=O)(=O)c1ccc(CNC(=O)N2C[C@](C)(C3CC3)c3cc(-c4c(OC)ncnc4C4CC4)ccc32)cc1 [Example 127] | 500 nM

Row | Compound | IC50
22 | CCS(=O)(=O)c1ccc(CNC(=O)N2CC(C)(C3CCC3)c3cc(-c4c(OC)ncnc4C4CC4)ccc32)cc1 (stereo not shown) [Example 117] | 480 nM
23 | CNS(=O)(=O)c1ccc(CNC(=O)N2CC3(CCCC3)c3cc(-c4ccccc4COC(C)(C)C)ccc32)cc1 [Example 81] | 980 nM
24 | CNS(=O)(=O)c1ccc(CNC(=O)N2CC3(CCCC3)c3cc(-c4cc(C(C)=O)ccc4C)ccc32)cc1 [Example 35] | 890 nM
25 | CCS(=O)(=O)c1ccc(CNC(=O)N2CC3(CCC3)c3cc(-c4c(OC)ncnc4C4CC4)ccc32)nc1 [Example 129] | 370 nM
26 | COc1cc(C#N)ccc1CNC(=O)N1CC2(CCCC2)c2cc(-c3ccc(O)cc3C(F)(F)F)ccc21 [Example 102] | 180 nM
27 | CNS(=O)(=O)c1ccc(CNC(=O)N2CC3(CCCC3)c3cc(-c4c(F)cccc4C#N)ccc32)cc1 [Example 34] | 790 nM
28 | CNS(=O)(=O)c1ccc(CNC(=O)N2CC3(CCCC3)c3cc(-c4c(C)cccc4C)ccc32)cc1 [Example 17] | 1000 nM
29 | CNS(=O)(=O)c1ccc(CNC(=O)N2CC3(CCCC3)c3cc(Oc4ccc(F)c(OC(F)(F)F)c4)ccc32)cc1 [Example 62] | 970 nM
30 | CNS(=O)(=O)c1ccc(CNC(=O)N2CC3(CCCC3)c3cc(-c4ccccc4CC#N)ccc32)cc1 [Example 45] | 1200 nM
31 | CCS(=O)(=O)c1ccc(CNC(=O)N2CC3(CCCC3)c3cc(-c4c(OC)nc(C)nc4C4CC4)ccc32)cc1 [Example 122] | 1100 nM
32 | CNS(=O)(=O)c1ccc(CNC(=O)N2CC3(CCCC3)c3cc(-c4ccc5c(cnn5C)c4C)ccc32)cc1 [Example 40] | 1100 nM
33 | CNS(=O)(=O)c1ccc(CNC(=O)N2CC3(CCCC3)c3cc(-c4cccc(N5CCCC5)c4)ccc32)cc1 [Example 5] | 1600 nM
34 | CNS(=O)(=O)c1ccc(CNC(=O)N2CC3(CCCCC3)c3cc(-c4ccc(F)cc4C)ccc32)cc1 [Example 55] | 1500 nM
35 | CNS(=O)(=O)c1ccc(CNC(=O)N2CC3(CCCC3)c3cc(-c4ccccc4C(F)F)ccc32)cc1 [Example 31] | 740 nM
36 | CNS(=O)(=O)c1ccc(CNC(=O)N2CC3(CCCC3)c3cc(-c4cccc(C#N)c4C)ccc32)cc1 [Example 38] | 970 nM
37 | CNS(=O)(=O)c1ccc(CNC(=O)N2CC3(CCCC3)c3cc(-c4c(C)ccc(F)c4CC#N)ccc32)cc1 [Example 90] | 580 nM
38 | CNS(=O)(=O)c1ccc(CNC(=O)N2CC3(CCCC3)c3cc(-c4ccc5[nH]ncc5c4C)ccc32)cc1 [Example 48] | 1600 nM
39 | CNS(=O)(=O)c1ccc(CNC(=O)N2CC3(CCCC3)c3cc(-c4cc(F)c(C#N)cc4C)ccc32)cc1 [Example 93] | 1200 nM
40 | CCS(=O)(=O)c1ccc(CNC(=O)N2CC3(CCCC3)c3cc(-c4c(OC)ncnc4OC)ccc32)cc1 [Example 121] | 600 nM
41 | CNS(=O)(=O)c1ccc(CNC(=O)N2CC3(CCCC3)c3cc(-c4c(C)cccc4C#N)ccc32)cc1 [Example 91] | 870 nM
42 | CCCC1(C)CN(C(=O)NCc2ccc(S(=O)(=O)NC)cc2)c2ccc(-c3ccc(OC)cc3C(F)(F)F)cc21 (stereo not shown) [Example 64] | 470 nM

Row | Compound | IC50
43 | CNS(=O)(=O)c1ccc(CNC(=O)N2CC3(CCCC3)c3cc(-c4ccc(O)cc4C(F)(F)F)ccc32)cc1 [Example 56] | 400 nM
44 | CNS(=O)(=O)c1ccc(CNC(=O)N2CC3(CCCC3)c3cc(-c4cc(O)ccc4C)ccc32)cc1 [Example 92] | 1100 nM
45 | COc1ccc(-c2ccc3c(c2)C2(CCCC2)CN3C(=O)NCc2ccc(C#N)c(C)c2)c(C(F)(F)F)c1 [Example 97] | 770 nM
46 | CNS(=O)(=O)c1ccc(CNC(=O)N2CC3(CCCC3)c3cc(C4=C(C)CCCC4)ccc32)cc1 [Example 95] | 340 nM
47 | CNS(=O)(=O)c1ccc(CNC(=O)N2CC3(CCCC3)c3cc(-c4cc(F)ccc4C(=O)OC)ccc32)cc1 [Example 79] | 940 nM
48 | CCS(=O)(=O)c1ccc(CNC(=O)N2CC3(CCCC3)c3cc(-c4cnc(N)nc4C(F)(F)F)ccc32)cc1 [Example 111] | 1700 nM
49 | CNS(=O)(=O)c1ccc(CNC(=O)N2CC3(CCCC3)c3cc(-c4ccc(OC)cc4C(F)(F)F)ccc32)cc1 [Example 6] | 310 nM
50 | CNS(=O)(=O)c1ccc(CNC(=O)N2CC3(CCCC3)c3cc(-c4ccccc4CC(F)(F)F)ccc32)cc1 [Example 87] | 680 nM
51 | CNS(=O)(=O)c1ccc(CNC(=O)N2CC3(CCCC3)c3cc(-c4cccc(C)c4C)ccc32)cc1 [Example 22] | 1200 nM
52 | CNS(=O)(=O)c1ccc(CNC(=O)N2CC3(CCCC3)c3cc(-c4cc(C)c(OC)cc4C)ccc32)cc1 [Example 83] | 370 nM
53 | CNS(=O)(=O)c1ccc(CNC(=O)N2CC3(CCCC3)c3cc(-c4ccc(O)cc4C)ccc32)cc1 [Example 11] | 690 nM
54 | CNS(=O)(=O)c1ccc(CNC(=O)N2CC3(CCCC3)c3cc(-c4ccc(NC(C)=O)cc4C)ccc32)cc1 [Example 50] | 1900 nM
55 | CNS(=O)(=O)c1ccc(CNC(=O)N2CC3(CCCC3)c3cc(-c4c(C)cc(CO)cc4C)ccc32)cc1 [Example 89] | 990 nM
56 | COc1ncnc(C)c1-c1ccc2c(c1)C1(CCCC1)CN2C(=O)NCc1ccc(S(C)(=O)=O)cc1 [Example 109] | 1700 nM
57 | CCS(=O)(=O)c1ccc(CNC(=O)N2CC(C)(C3CC3)c3cc(-c4c(OC)ncnc4C4CC4)ccc32)cc1 (stereo not shown) [Example 120] | 280 nM
58 | CNS(=O)(=O)c1ccc(CNC(=O)N2CC3(CCCC3)c3cc(-c4ccccc4C(F)(F)F)ccc32)cc1 [Example 10] | 640 nM
59 | CCOC(=O)c1ccc(F)cc1-c1ccc2c(c1)C1(CCCC1)CN2C(=O)NCc1ccc(S(=O)(=O)NC)cc1 [Example 80] | 970 nM
60 | CCS(=O)(=O)c1ccc(CNC(=O)N2CC3(CCCC3)c3cc(-c4ccc(O)cc4C)ccc32)cc1 [Example 67] | 410 nM
61 | COc1ccc(-c2ccc3c(c2)C2(CCCC2)CN3C(=O)NCc2ccc(C#N)cc2OC)c(C(F)(F)F)c1 [Example 96] | 450 nM
